The values below come from patent publication US8703483B2, “Reagents and methods for using human embryonic stem cells to evaluate toxicity of pharmaceutical compounds and other chemicals” (Wisconsin Alumni Research Foundation, priority 2006, dated 2014).

For series [1] the following is noted: supplementation prior to pregnancy; cited from earlier work.
For series [2], the system named is human embryonic stem cells. Nature of the series: Metabolite profiling (LC/ESI-TOF mass spectrometry) of extracellular media of hESCs treated with alcohol. It is filed as cell-based. Conditions: for Putative kynurenine (exact neutral mass 208.0816) upregulation: day four. The source says:
Binned masses were annotated in silico by querying the neutral masses in several different databases. These databases included Metlin, Biological Magnetic Resonance Data Bank (BMRB), NIST Chemistry WebBook, and the Human Metabolome Database. A mass was considered identified when its neutral mass was within 10 ppm of a known compound annotated in one of the databases listed above.

The test system of series [3] is H1/NIH code WA01 hES cells. Kind of series: Quantitative real-time PCR of epigenetic regulators and developmental genes in VPA-treated hESCs. The class given is cell-based, human. Conditions: 1 mM VPA treated. As for the experimental part: Treated and control H1/NIH code WA01 hES cells (passage 41) were analyzed by real-time PCR, and each treatment group was paired with a corresponding control group that received the standard growth media combination of CM+bFGF without VPA. In these studies, total cellular RNA was extracted from cells harvested at 24 hours (24 H), 4 days (4 D) and 8 days (EC) using the RNA Easy Kit (Qiagen, Valencia, Calif.) according to the manufacturer's instructions.
Expression levels of candidate test genes and a housekeeping gene (Beta-2-microglobulin) were evaluated by quantitative real-time PCR using a DNA Engine-Opticon 2 Detection System (MJ Research, Watertown, Mass.). The housekeeping gene acts as an internal control for normalization of RNA levels. The primers used for real-time PCR reactions were designed using Beacon Designer software (Premier Biosoft International, Palo Alto, Calif.). RNA was reverse transcribed using iScript cDNA Synthesis kit (Bio-Rad, Hercules, Calif.), wherein each cDNA synthesis reaction (20 μL) included 4 μL of 5× iScript reaction mix, 1 μL of iScript reverse transcriptase, and 2 μL of RNA. PCR was performed on cDNA in PCR reaction mixtures (25 μL) each containing 12.5 μL of Supermix (contains dNTPs, Taq DNA polymerase, SYBR Green I, and fluorescein), 250 nM forward primer, 250 nM reverse primer, and 1.6 μL RT-PCR products. Melting curve analysis and agarose gel electrophoresis were performed after real-time PCR reaction to monitor PCR specificity, wherein PCR products were detected with SYBR Green I using the iQ SYBR Green Supermix kit (Bio-Rad).
Quantifying the relative expression of real-time PCR was performed using the 2-ΔΔCt method (Livak & Schmittgen, 2001, Methods 25:402-8), and a general linear model was employed to fit the expression data. The PROC GLM procedure in SAS (version 8.2; SAS Institute, Cary, N.C.) was used to estimate least squares means in expression between treated and untreated hESCs and P<0.05 was considered statistically significant
Real-time PCR was conducted on samples from 24 hours (24 H), 4 days (4 D) and 8 days (EC) after VPA treatment to investigate expression levels of epigenetic regulators (such as DNA methyltransferase-1, DNMT-1, BMI-1, EED) and critical transcription factors responsible for embryonic patterning and neurodevelopment (RUNX2, BMP7, FGF8, CBX2, GLI3, SSH and SP8) in human embryonic stem cells.

In series [4] the test system is neuronal precursors derived from hESCs. Kind of series: Metabolite profiling of neural precursors derived from hESCs treated with valproate. As to conditions: 1 mM valproate. The class given is cell-based, human. The source says:
Metabolomic assessment of teratogens on embryonic development is not limited exclusively to hESCs.

For series [5], the system named is undifferentiated human embryonic stem cells (H1 and H9 hESC). Nature of the series: Metabolite profiling (LC/ESI-TOF-MS) of supernatant of hESCs treated with valproate. The class given is cell-based. As for the experimental part: Masses were binned together if they were within 10 ppm and eluted within a 2 minutes retention time window. […] Binning of the data is required for statistical analysis and comparison of masses across the entire experiment. If multiple peaks with the same mass at the same retention time within a single sample were detected by Mass Hunter, they were averaged to assist data analysis.
As used herein, a mass was considered to be the same across LC/ESI-TOF-MS runs using a simple algorithm that first sorts the data by mass and retention time. […] If a series of measurements fit this definition it was considered to be from the same compound. If either the mass or the retention time varied by more than the limits listed above it was considered to be a different compound and given a new unique designation.

Series [6] concerns human embryonic stem cells. Kind of series: Viability and pluripotency (Oct-4, morphology) of hESCs after valproate exposure. As to conditions: hESCs remained viable for multiple passages following exposure. The class given is cell-based.
Where [7] appears, read: 0.3% alcohol, four days, p<0.05.

In the case of `Nc1nc2ncc(CNc3ccc(C(=O)N[C@@H](CCC(=O)O)C(=O)O)cc3)nc2c(=O)[nH]1` [Folic acid], the “Reduction of the incidence of spina bifida” value in series [1] is 70%.

For the compound `CCO` [ethanol, reference compound], the “8-methoxykynurenate (219.0532) change” value was “upregulated” in series [2] (0.1% alcohol, four days, p<0.05) and “upregulated” in series [2] (setting [7]). Further, the “Putative kynurenine (exact neutral mass 208.0816) upregulation” value is “three-fold” in series [2] (0.1% treatment, p=0.001) and “three-fold” in series [2] (0.3% treatment, p=0.002). Besides, in series [2] (0.1 and 0.3% ethanol, of 49,481 mass signals), the “Compounds significantly different (p<0.05) in at least one treatment” value is 1,860 compounds. Also, the “5-hydroxy-L-tryptophan (220.0848) change in comparison to untreated controls” value in series [2] (setting [7]) is listed as “significant downregulation”.

As to `CCCC(CCC)C(=O)O` [valproate], in series [3] (4 D), the “BMI-1 gene expression level (target gene/Beta-2-Microglobulin)” value is 0.112, the “BMP7 gene expression level (target gene/Beta-2-Microglobulin)” value came to 0.342, the “CBX2 gene expression level (target gene/Beta-2-Microglobulin)” value came out at 1.1881 and the “DNMT1 gene expression level (target gene/Beta-2-Microglobulin)” value came out at 0.002. Also, in series [3] (4 D), the “EED gene expression level (target gene/Beta-2-Microglobulin)” value stood at 0.185, the “GLI3 gene expression level (target gene/Beta-2-Microglobulin)” value is 0.774, the “H19 gene expression level (target gene/Beta-2-Microglobulin)” value turned out to be 0.846 and the “RUNX2 gene expression level (target gene/Beta-2-Microglobulin)” value is recorded as 4.020. Further, in series [3] (4 D), the “SP8 gene expression level (target gene/Beta-2-Microglobulin)” value was 1.703 and the “Shh gene expression level (target gene/Beta-2-Microglobulin)” value stood at 0.533. For the same compound, in series [3] (24 H), the “BMI-1 gene expression level (target gene/Beta-2-Microglobulin)” value came out at 0.252, the “BMP7 gene expression level (target gene/Beta-2-Microglobulin)” value is 0.093, the “CBX2 gene expression level (target gene/Beta-2-Microglobulin)” value was determined as 0.245 and the “DNMT1 gene expression level (target gene/Beta-2-Microglobulin)” value stood at 0.624. Besides, in series [3] (24 H), the “EED gene expression level (target gene/Beta-2-Microglobulin)” value was found to be 0.342, the “FGF8 gene expression level (target gene/Beta-2-Microglobulin)” value was 0.801, the “GLI3 gene expression level (target gene/Beta-2-Microglobulin)” value was found to be 0.015 and the “H19 gene expression level (target gene/Beta-2-Microglobulin)” value came to 0.006. In series [3] (24 H), the “RUNX2 gene expression level (target gene/Beta-2-Microglobulin)” value stood at 1.769, the “SP8 gene expression level (target gene/Beta-2-Microglobulin)” value is given as 0.235 and the “Shh gene expression level (target gene/Beta-2-Microglobulin)” value is given as 0.562. For the same compound, in series [3] (EC (8 days)), the “BMI-1 gene expression level (target gene/Beta-2-Microglobulin)” value is given as 1.071, the “BMP7 gene expression level (target gene/Beta-2-Microglobulin)” value came out at 1.664, the “CBX2 gene expression level (target gene/Beta-2-Microglobulin)” value is 1.946 and the “DNMT1 gene expression level (target gene/Beta-2-Microglobulin)” value was 1.124. In addition, in series [3] (EC (8 days)), the “EED gene expression level (target gene/Beta-2-Microglobulin)” value is 1.769, the “FGF8 gene expression level (target gene/Beta-2-Microglobulin)” value amounted to 0.837, the “GLI3 gene expression level (target gene/Beta-2-Microglobulin)” value is 1.918 and the “H19 gene expression level (target gene/Beta-2-Microglobulin)” value turned out to be 2.756. For the same compound, in series [3] (EC (8 days)), the “RUNX2 gene expression level (target gene/Beta-2-Microglobulin)” value was 2.434 and the “SP8 gene expression level (target gene/Beta-2-Microglobulin)” value is listed as 5.808. Also, the “Compounds differentially secreted in treated neuronal precursors versus control” value in series [4] is on record as “Approximately 135 compounds”. Further, in series [5] (22 μM valproate, of 3,241 mass signals (3%)), the “Compounds with statistically-significant differences in at least one time point” value is recorded as 110 compounds. Also, the “Small molecules absent in treated groups” value in series [5] (VPA, 24 hours, vs untreated controls) is given as “approximately 40”. The “Effect of treatment on hESC viability” value in series [6] is “not detrimental”.
